The values below come from patent US4371541A, “Antiinflammatory and/or analgesic 3,4-dihydro-(or 1,4-dihydro)-4-aryl-2-((substituted)thio)-(1)-benzopyrano(3,4-d)imidazol es and their corresponding sulfoxides and sulfones” (E. I. Du Pont de Nemours and Company, priority 1982, dated 1983).

Read-outs that look alike come from different tables or passages of the source.

For test [1], the system named is phenylquinone-induced writhing (pain). Briefly: Phenylquinone Writhing Test. The format is in vivo, female white mice. The following applies: read-out: Phenylquinone Writhing ED50. The protocol: A test compound suspended in 1% methylcellulose was given orally to fasted (17-21 hours) female white mice, 5-20 animals per double blind test. Aqueous (0.01% phenyl-p-benzoquinone) phenylquinone, 0.20 ml per mouse, was injected intraperitoneally 6 minutes before observations were begun.

The subject of test [2] is adjuvant-induced arthritis. Put plainly: Established Adjuvant-Induced Arthritis in Rats. The format is in vivo, Charles River Lewis male rats. To be noted: rat; for ED50: oral gavage, dosed on day of grouping and 6 following days, ED50% decrease from control paw volume (uninjected left hind paw), read-out: Adjuvant Arthritic ED50; for Adjuvant Arthritic, paw volume reduction at the indicated dose: oral.

Where [3] appears, read: mouse, oral, fasted, effective analgesic dose for 50% of the mice.

The term ED50 denotes the midpoint of the dose-response relation. With `CC(=O)Oc1ccccc1C(=O)O` [Aspirin, aspirin, reference compound], the ED50 in test [1] (Mus musculus, po) was 135 mg/kg.

With `FC(F)C(F)(F)Sc1nc2c([nH]1)C(c1ccccc1)Oc1ccccc1-2` (stereo not shown) [Example 1, 3,4-Dihydro(or 1,4-dihydro)-2-[(1,1,2,2-tetrafluoroethyl)thio]-4-phenyl-[1]benzopyrano[3,4-d]imidazole], the figures for the ED50 in test [2] and in test [1] (setting [3]) were 3.4 mg/kg and 1.3 mg/kg, respectively.

`O=S(=O)(c1nc2c([nH]1)C(c1ccccc1)Oc1ccccc1-2)C(F)(F)C(F)F` (stereo not shown) [Example 2, 3,4-Dihydro(or 1,4-dihydro)-2-[(1,1,2,2-tetrafluoroethyl)sulfonyl]-4-phenyl-[1]benzopyrano[3,4-d]imidazole]: the values for the ED50 in test [2] and in test [1] (setting [3]) were 1.3 mg/kg and 0.19 mg/kg, respectively.

With `Fc1ccc(C2Oc3ccccc3-c3nc(SC(F)(F)C(F)F)[nH]c32)cc1` (stereo not shown) [Example 3, 3,4-Dihydro(or 1,4-dihydro)-2-[(1,1,2,2-tetrafluoroethyl)thio]-4-(4-fluorophenyl)-[1]benzopyrano[3,4-d]-imidazole], the ED50 in test [2] was found to be 4 mg/kg; in test [1] (setting [3]), 0.79 mg/kg.

For the compound `FC(F)(F)Sc1nc2c([nH]1)C(c1ccccc1)Oc1ccccc1-2` (stereo not shown) [Example 4, 3,4-Dihydro(or 1,4-dihydro)-2-[(trifluoromethyl)thio]4phenyl-[1]benzopyrano[3,4-d]imidazole], the “Adjuvant Arthritic, paw volume reduction at the indicated dose” value (“Adjuvant Arthritic, paw volume reduction” for short) in test [2] (at 9 (mg/kg)) is 31%. Besides, the ED50 in test [1] (setting [3]) came out at 0.58 mg/kg.

Turning to `O=S(=O)(c1nc2c([nH]1)C(c1ccccc1)Oc1ccccc1-2)C(F)(F)F` (stereo not shown) [Example 5, 3,4-Dihydro(or 1,4-dihydro)-2-[(trifluoromethyl)sulfonyl]-4-phenyl-[1]benzopyrano[3,4-d]imidazole], the ED50 in test [2] was found to be 0.8 mg/kg; in test [1] (setting [3]) it was 0.16 mg/kg.

Regarding `CS(=O)(=O)c1nc2c([nH]1)C(c1ccccc1)Oc1ccccc1-2` (stereo not shown) [Example 6, 3,4-Dihydro(or 1,4-dihydro)-2-(methylsulfonyl)-4-phenyl-[1]benzopyrano[3,4-d]imidazole], in test [2] (at 27 (mg/kg)), the “Adjuvant Arthritic, paw volume reduction” value was 34%. Also, the ED50 in test [1] (setting [3]) is 78 mg/kg.

On to `COc1ccc(C2Oc3ccccc3-c3nc(SC(F)(F)C(F)F)[nH]c32)cc1` (stereo not shown) [Example 7], for which the ED50 in test [1] (setting [3]) is less than 4 mg/kg.

Turning to `CCSc1nc2c([nH]1)C(c1ccccc1)Oc1ccccc1-2` (stereo not shown) [Example 8], the “Adjuvant Arthritic, paw volume reduction” value in test [2] (at 20 (mg/kg)) came to 18%.

Take `FC(F)(F)CSc1nc2c([nH]1)C(c1ccccc1)Oc1ccccc1-2` (stereo not shown) [Example 9]: the “Adjuvant Arthritic, paw volume reduction” value in test [2] (at 20 (mg/kg)) worked out at 30%.

Take `CC(C)Cc1ccc(C(C)C(=O)O)cc1` (stereo not shown) [Ibuprofen, ibuprofen, reference compound]: in test [1] (setting [3]), the ED50 amounted to 10 mg/kg.

In the case of `COc1ccc2c(c1)c(CC(=O)O)c(C)n2C(=O)c1ccc(Cl)cc1` [Indomethacin, indomethacin, reference compound], the ED50 in test [1] (Mus musculus, po) was determined as 0.35 mg/kg.

With `CCCCC1C(=O)N(c2ccccc2)N(c2ccccc2)C1=O` [Phenylbutazone, phenylbutazone, reference compound], the ED50 in test [1] (setting [3]) worked out at 80 mg/kg.
